For three compounds, pKa results are on record in US9217170B2, “Fluorescent detector systems for the detection of chemical perturbations in sterile storage devices” (Blood Cell Storage, Inc., priority 2004, dated 2015).

The conditions of data set [1]: pH 6.
Protocol: (§1) Absorbance was measured at pH 6, 8, and 10: acid (pH 6) gave two bands of similar absorbance; pH 10 gave a single λmax (base). The emission spectra were determined by excitation at the absorbance λmax (base). The wavelength where emission spectra crossed is reported as λiso. The emission λmax was measured at pH 10. pKa was determined from fluorescence emission spectra.
(§2) Fluorescence versus pH of various SNAFL free acids were compared using an Ocean Optics USB2000 fiber optic spectrometer and a tungsten halogen light source (part number HL-2000 FHSA). The light source was equipped with a linear variable filter that allowed the wavelength and shape of the excitation beam to be adjusted. […] A cuvette holder (part number CUV-FL-DA) was directly attached to the light source and a fiber optic cable directed emitted light to the spectrometer. Excitation conditions are reported for each fluorescence spectrum (3000 msec irradiation at the indicated wavelength). Spectral data were collected on a personal computer using the Ocean Optics software and overlays of different spectra were captured. […]
(§3) The pH at which two molecular species (tautomers) are equally represented is defined as the pKa. […] The intensity of fluorescence at the emission maxima is divided by 2, and pH of the intersecting pH curve is calculated by interpolation between the nearest 2 curves.
The nature of data set [2]: pKa determination from fluorescence emission spectra of SNAFL analogs. To be noted: phosphate buffer, pH 6.
Protocol: as §1, §2, §3
The conditions of data set [3]: published / literature value; cited from earlier work.

Read-outs that look alike come from different tables or passages of the source.

Take “5′(and 6′)-carboxy-3,10-dihydroxy-spiro[7H-benzo[c]xanthene-7,1′(3′H)-isobenzofuran]-3′-one [SNAFL-1]”: the pKa (usually the negative logarithm of the acid dissociation constant) in data set [1] stood at 7.6.

In data set [2], `O=C(O)CCc1cc2c(-c3ccccc3C(=O)O)c3ccc4cc(O)c(Cl)cc4c3oc-2cc1=O` [EBIO-3, 2-(2-chloro-3-hydroxy-9-carboxyethyl-10-oxo-10H-benzo[c]xanthen-7-yl)benzoic acid] registered a pKa of 6.6.

Regarding `O=S1(=O)OC2(c3ccccc31)c1ccc3cc(O)ccc3c1Oc1c2ccc2cc(O)ccc12` [VITABLUE], in data set [3], the pKa is reported as 7.56.
